Source: US20230355753A1, “BISPECIFIC ANTIBODY AGAINST CD3 AND CD20 IN COMBINATION THERAPY FOR TREATING DIFFUSE LARGE B-CELL LYMPHOMA” (GENMAB A/S, priority 2020, published 2023)
Where two headings read alike, the source gives them in different places.

Assays:
[1] = tested on: R/R DLBCL eligible for ASCT; format: in vivo; conditions: in combination with R-DHAX/C, preliminary
Method: The trial is conducted in 2 parts: dose escalation (Part 1) and expansion (Part 2). Subjects participate in only one part. Both parts consist of a screening period, a treatment period, a safety follow-up period, and a survival follow-up period.
Epcoritamab is initially be administered in combination with R-DHAX/C in a 3-subject cohort. DLTs are evaluated during the first 28 days.
Dexamethasone (40 mg) is administered intravenously or orally on days 1-4 of a cycle once every 3 weeks (Q3W) for cycles 1-3. Cytarabine (2 g/m^2) is administered intravenously on day 1 (usually over 3 hours), repeated after 12 hours (may result in a second dose on day 2 depending on timing of first dose), once every 3 weeks (Q3W) for cycles 1-3. […] Carboplatin (for DHAC) (AUC=5 mg/ml/min; Calvert's formula) is administered intravenously on day 1 once every 3 weeks (Q3W) for cycles 1-3.
CRS is graded according to the ASTCT grading for CRS (Tables 6 and 7), and for treatment of CRS, subjects should receive supportive care. […]

[2] = tested on: CD20-expressing Raji-luc tumor cells; conditions: even in the presence of an excess of rituximab variant with inert Fc domain (IgG1-RTX-FEAR); cited from earlier work
R/R B-NHL = experiment: Ongoing clinical trial of epcoritamab monotherapy (NCT03625037); format: in vivo
From the text: Epcoritamab as monotherapy is currently in a clinical trial for the treatment of relapsed/refractory (R/R) (ClinicalTrials.gov Identifier: NCT03625037).

[3] = tested on: primary DLBCL and follicular lymphoma patient biopsies; conditions: cited from earlier work

**Q.** For “epcoritamab: IgG1 bispecific CD3xCD20 antibody, heavy/light chain pairs SEQ ID NOs: 24/25 and 26/27; CAS 2134641-34-0”, which responders observed ([1]; escalation phase, as of Sep. 8, 2021, total of 22 patients dosed, non-validated) is on record?
**A.** The responders observed was 4.

**Q.** And the responders observed ([1]; expansion phase 48 mg, as of Sep. 8, 2021, response data not completely entered)?
**A.** The responders observed was 0.

**Q.** And the “tumor growth in the xenograft model” value [2]?
**A.** Its value is “effectively reduce tumor growth”.

**Q.** And the tolerated dose (R/R B-NHL; human, in vivo)?
**A.** The tolerated dose was “at least 48 mg”.

**Q.** And the dose-limiting toxicities (R/R B-NHL; monotherapy, R/R B-NHL patients, preliminary data)?
**A.** The dose-limiting toxicities was “no dose-limiting toxicities reported”.

**Q.** What about the T-cell-mediated cytotoxicity ([3]; biopsies taken a certain amount of time after administration of an anti-CD20 antibody) of the same substance?
**A.** The T-cell-mediated cytotoxicity was “induced T-cell-mediated cytotoxicity”.

**Q.** What about the tumor cell kill ([3]; biopsy taken 2 weeks after administering the anti-CD20 antibody) of the same substance?
**A.** The tumor cell kill was “up to 40%”.
